According to patent US6906098B2, “Mixed steroidal 1,2,4,5-tetraoxane compounds and methods of making and using thereof” (priority 2002, dated 2005):
Converted amounts (≈) assume the structure as drawn. “And” between values parts separate entries of the source, which are not always exact repeats. Identical values can stand only once. Like-named read-outs stand apart in the source and are kept apart here.

Tests used:
M. tuberculosis H37Rv = assay: Minimum inhibitory concentration (MIC) in the MABA; assay type: cell-based, Mycobacterium tuberculosis
Experimental: (§1) The activity of the compounds of the present invention against Mycobacterium tuberculosis was determined using the following assays conducted by the National Institute of Allergy and Infectious Diseases (NIAID) supports a TB drug acquisition and screening program, the TAACF.
2. Minimum Inhibitory Concentration (MIC)
The MIC is defined as the lowest concentration effecting a reduction in fluorescence of 90% relative to controls. Minimum compound requirements: 1.0 mg.

VERO cells [1] = assay: cells; conditions: Chlorocebus sabaeus, Table 5
VERO cells [2] = conditions: for IC50: Table 5, VERO cells
[3] = tested on: D6 and W2 P. falciparum clones; assay type: cell-based, Plasmodium falciparum; conditions: for Resistance Index: IC50 (W2)/IC50 (D6) ratio
[4] = tested on: Plasmodium falciparum chloroquine-resistant strain W2; assay: microbe, parasite or virus in culture; assay type: cell-based; conditions: for Strain W2 IC50: growth inhibition, chloroquine-resistant strain W2, 66 h incubation; for IC50: Plasmodium falciparum, W2, 66 h, read-out: Strain W2 IC50, growth inhibition, chloroquine-resistant strain W2, 66 h incubation
[5] = tested on: Mycobacterium tuberculosis H37Rv (ATCC 27294); assay: Primary screen, Microplate Alamar Blue Assay (MABA), percent inhibition; assay type: cell-based; conditions: Table 5, Alamar assay, primary screening at 6.25 μg/ml; for inhibition at 6.25 µg/mL: Mycobacterium tuberculosis, read-out: % Inhib
Experimental: as §1
To determine the percent inhibition the following assay was conducted. Primary screening was conducted at 6.25 μg/ml (or the molar equivalent of highest molecular weight compound in a given series of congeners) against Mycobacterium tuberculosis H37Rv (ATCC 27294) in BACTEC 12B medium using the Microplate Alamar Blue Assay (MABA). See Collins, L. and S. G. Franzblau. 1997. Microplate alamar blue assay versus BACTEC 460 system for high-throughput screening of compounds against Mycobacterium tuberculosis and Mycobacterium avium. Antimicrob Agents Chemother 41:1004-9, which is herein incorporated by reference.
Minimum compound requirements: 1.0 mg.

[6] = tested on: Plasmodium falciparum chloroquine-susceptible strain D6; assay: In vitro antimalarial drug susceptibility assay (radiolabeled hypoxanthine incorporation), strain D6; assay type: cell-based; conditions: for Strain D6 IC50: growth inhibition, chloroquine-susceptible strain D6, 66 h incubation; for IC50: Plasmodium falciparum, D6, 66 h, read-out: Strain D6 IC50, growth inhibition, chloroquine-susceptible strain D6, 66 h incubation
[7] = Table 5, Alamar assay, M. tuberculosis H37Rv
[8] = ratio of IC50 in VERO cells to MIC (M. tuberculosis H37Rv)
[9] = Mycobacterium tuberculosis, H37RV, Table 5, Alamar assay, M. tuberculosis H37Rv, read-out: MIC

Row | SMILES | MIC (M. tuberculosis H37Rv; [7]) | IC50 (VERO cells [1]) | SI (selectivity index) (VERO cells [2]; [8]) | Resistance Index [3] | Strain W2 IC50 [4] | % Inhib [5] | Strain D6 IC50 [6] | MIC (M. tuberculosis H37Rv; [9]) | IC50 [4] | inhibition at 6.25 µg/mL [5] | IC50 [6] | IC50 (VERO cells [2]) | antimalarial activity in words ([3]; D6 and W2 clones, Table 2) | MIC (M. tuberculosis H37Rv; Mycobacterium tuberculosis, H37RV, Table 3, H37Rv, read-out: MIC) | SI (selectivity index) (VERO cells [2])
1 | CCC1CCC2(CC1)OOC1(CC[C@]3(C)C4C[C@H](OC(C)=O)[C@@]5(C)C(CC[C@@H]5C(C)CCC(=O)O)C4[C@H](OC(C)=O)C[C@@H]3C1)OO2 (single isomer, unassigned) [9j/1C39, 7α,12α-Diacetoxy-5β-cholan-24-oic acid-3-spiro-6′-(1′,2′,4′,5′-tetraoxacyclohexane)-3′-spiro-1″-((4″S or R)-ethyl)cyclohexane] | 6.25 µg/mL (≈ 9.63 µM) | 0.95 µg/mL (≈ 1.46 µM) | 0.15 | 1.47 | 0.00936 µg/mL | 95% | 0.00638 µg/mL |  |  |  |  |  |  |  | 
2 | CCC1CCC2(CC1)OOC1(CC[C@]3(C)C4C[C@H](OC(C)=O)[C@@]5(C)C(CC[C@@H]5C(C)CCC(N)=O)C4[C@H](OC(C)=O)C[C@@H]3C1)OO2 (single isomer, unassigned) [25/1C35, 7α,12α-Diacetoxy-5β-cholan-24-amide-3-spiro-6′-(1′,2′,4′,5′-tetraoxacyclohexane)-3′-spiro-1″-((4″R or S)-ethyl)cyclohexane] |  | 4.65 µg/mL (≈ 7.18 µM) | 1.48 | 1.27 |  |  | 0.00544 µg/mL | 3.13 µg/mL (≈ 4.83 µM) | 0.00693 µg/mL (≈ 0.0107 µM) | 100% |  |  |  |  | 
3 | CCC1CCC2(CC1)OOC1(CC[C@]3(C)C4C[C@H](OC(C)=O)[C@@]5(C)C(CC[C@@H]5C(C)CCC(=O)NC)C4[C@H](OC(C)=O)C[C@@H]3C1)OO2 (single isomer, unassigned) [26/1C36, N-Methyl-7α,12α-Diacetoxy-5β-cholan-24-amide-3-spiro-6′-(1′,2′,4′,5′-tetraoxacyclohexane)-3′-spiro-1″-((4″R or S)-ethyl)cyclohexane] | 1.56 µg/mL (≈ 2.36 µM) | 1.83 µg/mL (≈ 2.76 µM) | 1.17 | 1.08 |  |  | 0.00477 µg/mL |  | 0.00517 µg/mL (≈ 0.00781 µM) | 99% |  |  |  |  | 
4 | CCNC(=O)CCC(C)[C@H]1CCC2C3C(C[C@H](OC(C)=O)[C@@]21C)[C@@]1(C)CCC2(C[C@H]1C[C@H]3OC(C)=O)OOC1(CCC(CC)CC1)OO2 (single isomer, unassigned) [27/1C37, N-Ethyl-7α,12α-Diacetoxy-5β-cholan-24-amide-3-spiro-6′-(1′,2′,4′,5′-tetraoxacyclohexane)-3′-spiro-1″-((4″R or S)-ethyl)cyclohexane] | 1.56 µg/mL (≈ 2.31 µM) | 1.91 µg/mL (≈ 2.83 µM) | 1.22 | 0.48 |  |  |  |  | 0.00646 µg/mL (≈ 0.00956 µM) | 96% | 0.0134 µg/mL (≈ 0.0198 µM) |  |  |  | 
5 | CCCNC(=O)CCC(C)[C@H]1CCC2C3C(C[C@H](OC(C)=O)[C@@]21C)[C@@]1(C)CCC2(C[C@H]1C[C@H]3OC(C)=O)OOC1(CCC(CC)CC1)OO2 (single isomer, unassigned) [28/1C38, N-(n-Propyl)-7α,12α-Diacetoxy-5β-cholan-24-amide-3-spiro-6′-(1′,2′,4′,5′-tetraoxacyclohexane)-3′-spiro-1″-((4″R or S)-ethyl)cyclohexane] |  | 2.28 µg/mL (≈ 3.3 µM) | 0.36 | 0.54 | 0.00312 µg/mL | 92% | 0.00576 µg/mL | 6.25 µg/mL (≈ 9.06 µM) |  |  |  |  |  |  | 
6 | CCC1CCC2(CC1)OOC1(CC[C@]3(C)C4C[C@H](OC(C)=O)[C@@]5(C)C(CC[C@@H]5C(C)CCC(=O)NC)C4[C@H](OC(C)=O)C[C@@H]3C1)OO2 (single isomer, unassigned) [30/1C41, N-Methyl-7α,12α-Diacetoxy-5β-cholan-24-amide-3-spiro-6′-(1′,2′,4′,5′-tetraoxacyclohexane)-3′-spiro-1″-((4″S or R)-ethyl)cyclohexane] | 3.13 µg/mL (≈ 4.73 µM) |  | 0.50 | 0.22 | 0.00407 µg/mL | 99% | 0.0185 µg/mL |  |  |  |  | 1.59 µg/mL (≈ 2.4 µM) |  |  | 
7 | CC(=O)O[C@H]1CC2C(C3CC[C@H](C(C)CCC(N)=O)[C@]31C)[C@H](OC(C)=O)C[C@@H]1CC3(CC[C@]21C)OOC1(CCCCC1)OO3 (stereo partly drawn) [10/1C19, 7α,12α-Diacetoxy-5β-cholan-24-amide-3-spiro-6′-(1′,2′,4′,5′-tetraoxacyclohexane)-3′-spirocyclohexane] |  | 4.94 µg/mL (≈ 7.97 µM) | 0.79 | 0.40 |  |  |  | 6.25 µg/mL (≈ 10.1 µM) | 0.00294 µg/mL (≈ 0.00474 µM) | 99% | 0.00733 µg/mL (≈ 0.0118 µM) |  |  |  | 
8 | CC(=O)O[C@H]1CC2C(C3CC[C@H](C(C)CCC(N)=O)[C@]31C)[C@H](OC(C)=O)C[C@@H]1CC3(CC[C@]21C)OOC1(CCC(C)CC1)OO3 (stereo partly drawn) [21/1C30, 7α,12α-Diacetoxy-5β-cholan-24-amide-3-spiro-6′-(1′,2′,4′,5′-tetraoxacyclohexane)-3′-spiro-1″-((4″S)-methyl)cyclohexane] | 6.25 µg/mL (≈ 9.86 µM) |  | 0.39 | 0.70 | 0.00894 µg/mL | 99% | 0.0127 µg/mL |  |  |  |  | 2.43 µg/mL (≈ 3.83 µM) |  |  | 
9 | CNC(=O)CCC(C)[C@H]1CCC2C3C(C[C@H](OC(C)=O)[C@@]21C)[C@@]1(C)CCC2(C[C@H]1C[C@H]3OC(C)=O)OOC1(CCC(C)CC1)OO2 (stereo partly drawn) [22/1C31, N-Methyl-7α,12α-diacetoxy-5β-cholan-24-amide-3-spiro-6′-(1′,2′,4′,5′-tetraoxacyclohexane)-3′-spiro-1″-((4″S)-methyl)cyclohexane] | 6.25 µg/mL (≈ 9.65 µM) |  | 0.29 | 0.71 | 0.00769 µg/mL | 99% | 0.01079 µg/mL |  |  |  |  | 1.83 µg/mL (≈ 2.82 µM) |  |  | 
10 | CCNC(=O)CCC(C)[C@H]1CCC2C3C(C[C@H](OC(C)=O)[C@@]21C)[C@@]1(C)CCC2(C[C@H]1C[C@H]3OC(C)=O)OOC1(CCC(C)CC1)OO2 (stereo partly drawn) [23/1C32, N-Ethyl-7α,12α-diacetoxy-5β-cholan-24-amide-3-spiro-6′-(1′,2′,4′,5′-tetraoxacyclohexane)-3′-spiro-1″-((4″S)-methyl)cyclohexane] | >6.25 µg/mL |  |  | 0.64 | 0.00657 µg/mL | 21% | 0.01032 µg/mL |  |  |  |  |  |  |  | 
11 | CCCNC(=O)CCC(C)[C@H]1CCC2C3C(C[C@H](OC(C)=O)[C@@]21C)[C@@]1(C)CCC2(C[C@H]1C[C@H]3OC(C)=O)OOC1(CCC(C)CC1)OO2 (stereo partly drawn) [24/1C33, N-(n-Propyl)-7α,12α-diacetoxy-5β-cholan-24-amide-3-spiro-6′-(1′,2′,4′,5′-tetraoxacyclohexane)-3′-spiro-1″-((4″S)-methyl)cyclohexane] | >6.25 µg/mL |  |  | 0.98 | 0.05611 µg/mL | 0% | 0.05741 µg/mL |  |  |  |  |  | inactive |  | 
12 | NNC(=O)c1ccncc1 [Isoniazid, reference compound] |  | > 1000 µg/mL |  |  |  |  |  | 0.025 to 0.05 µg/mL (≈ 0.182 to 0.365 µM) |  |  |  |  |  | 0.05 µg/mL and 0.36 µM | > 40,000
